# Data from the supplement of paper PMC10307832.
# Tests used:
# Experiment in all cases: relative viability (nuclei count vs DMSO), 5 days (fraction); higher = more cells survive
# Linsitinib + Alpelisib = compound: C[C@]1(O)C[C@@H](c2nc(-c3ccc4ccc(-c5ccccc5)nc4c3)c3c(N)nccn32)C1 [Linsitinib] + Cc1nc(NC(=O)N2CCC[C@H]2C(N)=O)sc1-c1ccnc(C(C)(C)C(F)(F)F)c1 [Alpelisib] (partner 2 µM)
# Summary of the method: (§1)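 Nuclei were stained with Hoechst during a one-step fixation (final 0.05% Triton X-100, 1% formaldehyde, 1 ug/ml Hoechst) carried out 5 days after dosing, then counted on 4× images. The cells, lung cancer lines in 1536-well plates, had been dosed by pin tool the day after seeding with one drug alone or a fixed anchor-drug dose plus five library-drug doses (not always all listed) in √10 steps. Relative viability is the nuclei count in treated wells divided by that in vehicle wells, and each value is the median of duplicate plates.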
# Linsitinib + Luminespib = compound: C[C@]1(O)C[C@@H](c2nc(-c3ccc4ccc(-c5ccccc5)nc4c3)c3c(N)nccn32)C1 [Linsitinib] + CCNC(=O)c1noc(-c2cc(C(C)C)c(O)cc2O)c1-c1ccc(CN2CCOCC2)cc1 [Luminespib] (partner 0.01 µM)
# Summary of the method: as §1
# Linsitinib + Bortezomib = compound: C[C@]1(O)C[C@@H](c2nc(-c3ccc4ccc(-c5ccccc5)nc4c3)c3c(N)nccn32)C1 [Linsitinib] + CC(C)C[C@H](NC(=O)[C@H](Cc1ccccc1)NC(=O)c1cnccn1)B(O)O [Bortezomib] (partner 0.002 µM)
# Summary of the method: as §1
# Ispinesib + Pemetrexed = compound: Cc1ccc(C(=O)N(CCCN)[C@@H](c2nc3cc(Cl)ccc3c(=O)n2Cc2ccccc2)C(C)C)cc1 [Ispinesib] + Nc1nc2[nH]cc(CCc3ccc(C(=O)N[C@@H](CCC(=O)O)C(=O)O)cc3)c2c(=O)[nH]1 [Pemetrexed] (partner 0.2 µM)
# Summary of the method: as §1
Cell Line,relative viability (Linsitinib + Alpelisib; first compound 0.01 µM),relative viability (Linsitinib + Alpelisib; first compound 0.03162 µM),relative viability (Linsitinib + Alpelisib; first compound 0.1 µM),relative viability (Linsitinib + Alpelisib; first compound 0.3162 µM),relative viability (Linsitinib + Alpelisib; first compound 1 µM),relative viability (Linsitinib + Luminespib; first compound 0.01 µM),relative viability (Linsitinib + Luminespib; first compound 0.03162 µM),relative viability (Linsitinib + Luminespib; first compound 0.1 µM),relative viability (Linsitinib + Luminespib; first compound 0.3162 µM),relative viability (Linsitinib + Luminespib; first compound 1 µM),relative viability (Linsitinib + Bortezomib; first compound 0.01 µM),relative viability (Linsitinib + Bortezomib; first compound 0.03162 µM),relative viability (Linsitinib + Bortezomib; first compound 0.1 µM),relative viability (Linsitinib + Bortezomib; first compound 0.3162 µM),relative viability (Linsitinib + Bortezomib; first compound 1 µM),relative viability (Ispinesib + Pemetrexed; first compound 0.001 µM),relative viability (Ispinesib + Pemetrexed; first compound 0.003162 µM),relative viability (Ispinesib + Pemetrexed; first compound 0.01 µM),relative viability (Ispinesib + Pemetrexed; first compound 0.03162 µM),relative viability (Ispinesib + Pemetrexed; first compound 0.1 µM)
NCI-H23,0.728,0.577,0.582,0.448,0.516,0.218,0.207,0.211,0.219,0.203,0.96,1.17,1.06,0.681,0.589,0.68,0.785,0.726,0.522,0.207
HCC-827,0.995,1.02,0.967,,0.915,0.733,0.599,0.648,,0.657,1.04,1.04,0.934,0.827,1.01,0.25,0.259,0.274,0.248,0.235
PC-3 [JPC-3],1.03,1.05,1.03,1.02,0.924,0.716,0.69,0.764,0.669,0.712,0.745,0.824,0.821,0.637,0.713,1.29,1.39,1.02,0.674,0.384
NCI-H1355,0.78,0.718,0.675,0.632,0.549,0.761,0.685,0.618,0.616,0.587,1.19,1.25,1.18,0.748,0.79,1.13,1.09,1.16,0.809,0.259
NCI-H1975,0.608,0.62,0.647,0.543,0.453,0.24,0.263,0.281,0.302,0.127,0.332,0.348,0.373,0.404,0.296,0.328,0.327,0.322,0.277,0.155
NCI-H460,0.46,0.325,0.475,0.329,0.351,0.044,0.0373,0.033,0.0397,0.0347,1.07,1.07,1.14,0.92,1.07,0.0593,0.0626,0.0626,0.0523,0.0519
EPLC-272H,0.909,0.942,0.87,,0.925,0.23,0.438,,,0.725,0.882,1.11,1.06,,0.857,0.31,0.327,0.193,0.265,0.227
SK-LU-1,0.975,0.908,1.03,,1.09,0.212,,0.203,0.208,0.215,1.19,0.659,1.25,0.492,0.561,1.07,0.972,1.27,0.897,0.412
NCI-H322M,0.711,0.774,0.921,0.703,0.673,0.946,0.444,0.856,0.698,0.658,1.24,1.12,1.44,0.922,1.19,0.665,0.616,0.585,0.525,0.425
NCI-H2405,0.86,0.625,1.04,0.632,0.698,0.762,0.724,0.653,0.703,0.475,0.592,0.929,0.949,0.676,0.921,1.1,1.06,0.9,0.934,0.423
NCI-H1666,0.847,0.869,0.769,0.452,0.477,0.95,1.08,1.12,1.07,1.02,0.675,0.798,0.774,0.348,0.308,0.89,0.786,0.883,0.91,0.817
H3255,0.605,0.858,0.732,0.591,0.771,0.87,1,0.869,0.594,0.917,0.803,0.796,0.812,0.541,0.627,0.575,0.604,0.515,0.525,0.39
NCI-H1563,0.909,0.924,0.85,0.861,0.928,0.599,0.607,0.51,0.486,0.525,0.835,0.86,0.87,0.719,0.827,0.849,0.859,0.743,0.771,0.661
LCLC-103H,0.896,0.943,0.975,1.09,0.942,1.06,0.965,0.918,0.813,0.838,1.11,0.951,1.17,1.05,0.892,0.475,0.474,0.446,0.449,0.352
NCI-H2347,1.01,1.21,1.01,0.595,0.902,0.454,0.284,0.362,,0.389,0.885,0.737,0.941,0.77,1.05,0.47,0.432,0.433,0.41,0.425
HCC-15,0.918,0.887,0.952,0.582,0.775,0.218,0.296,0.271,,0.34,1.04,0.938,1.1,0.297,0.785,0.241,0.258,0.23,0.221,0.144
